Columns and labels:
Assay type in all cases: functional, cell-based
A549 = experiment: Antiproliferative activity against human A549 cells after 72 hrs by MTT assay; settings: A549, 72 h
MCF7 = experiment: Antiproliferative activity against human MCF7 cells after 72 hrs by MTT assay; settings: MCF7, 72 h
HCT-116 = experiment: Antiproliferative activity against human HCT116 cells after 72 hrs by MTT assay; settings: HCT-116, 72 h
HepG2 = experiment: Antiproliferative activity against human HepG2 cells after 72 hrs by MTT assay; settings: HepG2, 72 h
MGC-803 = experiment: Antiproliferative activity against human MGC803 cells after 72 hrs by MTT assay; settings: MGC-803, 72 h

| SMILES | IC50 (A549) | IC50 (MCF7) | IC50 (HCT-116) | IC50 (HepG2) | IC50 (MGC-803) |
| --- | --- | --- | --- | --- | --- |
| CC(=O)N[C@H]1[C@H](O[C@H]2CC[C@]3(C)[C@H]4CC=C5[C@@H]6CC(C)(C)CC[C@]6(C(=O)OCc6cn(-c7ccccc7Br)nn6)CC[C@@]5(C)[C@]4(C)CC[C@H]3C2(C)C)O[C@H](CO[C@@H]2OC[C@H](O)[C@H](O)[C@@H]2O)[C@@H](O)[C@@H]1O | 65.2 µM | 68.2 µM | 13.2 µM | 61.7 µM | 54.7 µM |
| CC(=O)N[C@H]1[C@H](O[C@H]2CC[C@]3(C)[C@H]4CC=C5[C@@H]6CC(C)(C)CC[C@]6(C(=O)OCc6cn(-c7cccc([N+](=O)[O-])c7)nn6)CC[C@@]5(C)[C@]4(C)CC[C@H]3C2(C)C)O[C@H](CO[C@@H]2OC[C@H](O)[C@H](O)[C@@H]2O)[C@@H](O)[C@@H]1O | 37.2 µM | 25.8 µM | 27.1 µM | 33.3 µM | 37.8 µM |
| COc1ccccc1-n1cc(COC(=O)[C@]23CCC(C)(C)C[C@H]2C2=CC[C@@H]4[C@@]5(C)CC[C@H](O[C@@H]6O[C@H](CO[C@@H]7OC[C@H](O)[C@H](O)[C@@H]7O)[C@@H](O)[C@H](O)[C@H]6NC(C)=O)C(C)(C)[C@@H]5CC[C@@]4(C)[C@]2(C)CC3)nn1 | 59.9 µM | 53.1 µM | 55.8 µM | 49.7 µM | 53 µM |
| CC(=O)N[C@H]1[C@H](O[C@H]2CC[C@]3(C)[C@H]4CC=C5[C@@H]6CC(C)(C)CC[C@]6(C(=O)OCc6cn(-c7cccc(F)c7)nn6)CC[C@@]5(C)[C@]4(C)CC[C@H]3C2(C)C)O[C@H](CO[C@@H]2OC[C@H](O)[C@H](O)[C@@H]2O)[C@@H](O)[C@@H]1O | 19.6 µM | 34.3 µM | 11.1 µM | 18.2 µM | 18.4 µM |
| CC(=O)N[C@H]1[C@H](O[C@H]2CC[C@]3(C)[C@H]4CC=C5[C@@H]6CC(C)(C)CC[C@]6(C(=O)OCc6cn(-c7ccccc7F)nn6)CC[C@@]5(C)[C@]4(C)CC[C@H]3C2(C)C)O[C@H](CO[C@@H]2OC[C@H](O)[C@H](O)[C@@H]2O)[C@@H](O)[C@@H]1O | 24.2 µM | 47.6 µM | 23.5 µM | 18.9 µM | 20.7 µM |
| COC(=O)c1ccccc1-n1cc(COC(=O)[C@]23CCC(C)(C)C[C@H]2C2=CC[C@@H]4[C@@]5(C)CC[C@H](O[C@@H]6O[C@H](CO[C@@H]7OC[C@H](O)[C@H](O)[C@@H]7O)[C@@H](O)[C@H](O)[C@H]6NC(C)=O)C(C)(C)[C@@H]5CC[C@@]4(C)[C@]2(C)CC3)nn1 | 66.7 µM | 86.8 µM | 38.2 µM | 68.9 µM | 76.3 µM |

Continued, values first:

| IC50 (A549) | IC50 (MCF7) | IC50 (HCT-116) | IC50 (HepG2) | IC50 (MGC-803) | SMILES |
| --- | --- | --- | --- | --- | --- |
| 14.2 µM | 15.1 µM | 12.4 µM | 11.8 µM | 12.8 µM | CC(=O)N[C@H]1[C@H](O[C@H]2CC[C@]3(C)[C@H]4CC=C5[C@@H]6CC(C)(C)CC[C@]6(C(=O)OCc6cn(-c7ccc(C(F)(F)F)cc7)nn6)CC[C@@]5(C)[C@]4(C)CC[C@H]3C2(C)C)O[C@H](CO[C@@H]2OC[C@H](O)[C@H](O)[C@@H]2O)[C@@H](O)[C@@H]1O |
| 12.5 µM | 26.2 µM | 22.9 µM | 12.6 µM | 12.4 µM | CC(=O)N[C@H]1[C@H](O[C@H]2CC[C@]3(C)[C@H]4CC=C5[C@@H]6CC(C)(C)CC[C@]6(C(=O)OCc6cn(-c7ccc(Br)cc7)nn6)CC[C@@]5(C)[C@]4(C)CC[C@H]3C2(C)C)O[C@H](CO[C@@H]2OC[C@H](O)[C@H](O)[C@@H]2O)[C@@H](O)[C@@H]1O |
| 20.7 µM | 19.7 µM | 20 µM | 12.2 µM | 19.7 µM | COc1ccc(-n2cc(COC(=O)[C@]34CCC(C)(C)C[C@H]3C3=CC[C@@H]5[C@@]6(C)CC[C@H](O[C@@H]7O[C@H](CO[C@@H]8OC[C@H](O)[C@H](O)[C@@H]8O)[C@@H](O)[C@H](O)[C@H]7NC(C)=O)C(C)(C)[C@@H]6CC[C@@]5(C)[C@]3(C)CC4)nn2)cc1 |
| 38.7 µM | 67.1 µM | 37.9 µM | 28.4 µM | 24.9 µM | CC(=O)N[C@H]1[C@H](O[C@H]2CC[C@]3(C)[C@H]4CC=C5[C@@H]6CC(C)(C)CC[C@]6(C(=O)OCc6cn(-c7ccc(Cl)cc7)nn6)CC[C@@]5(C)[C@]4(C)CC[C@H]3C2(C)C)O[C@H](CO[C@@H]2OC[C@H](O)[C@H](O)[C@@H]2O)[C@@H](O)[C@@H]1O |
| 22.6 µM | 15.8 µM | 8.86 µM | 17.5 µM | 18.2 µM | CC(=O)N[C@H]1[C@H](O[C@H]2CC[C@]3(C)[C@H]4CC=C5[C@@H]6CC(C)(C)CC[C@]6(C(=O)OCc6cn(-c7ccc(C#N)cc7)nn6)CC[C@@]5(C)[C@]4(C)CC[C@H]3C2(C)C)O[C@H](CO[C@@H]2OC[C@H](O)[C@H](O)[C@@H]2O)[C@@H](O)[C@@H]1O |
| 19.7 µM | 24.5 µM | 16.6 µM | 13.6 µM | 21.3 µM | CCOc1ccc(-n2cc(COC(=O)[C@]34CCC(C)(C)C[C@H]3C3=CC[C@@H]5[C@@]6(C)CC[C@H](O[C@@H]7O[C@H](CO[C@@H]8OC[C@H](O)[C@H](O)[C@@H]8O)[C@@H](O)[C@H](O)[C@H]7NC(C)=O)C(C)(C)[C@@H]6CC[C@@]5(C)[C@]3(C)CC4)nn2)cc1 |

From ChEMBL document CHEMBL4261580, “Novel antitumor compound optimized from natural saponin Albiziabioside A induced caspase-dependent apoptosis and ferroptosis as a p53 activator through the mitochondrial pathway” (Eur J Med Chem, 2018)
